In assay [1] the test system is J-774 macrophages. The assay is described as follows: Corrole-mediated cholesterol efflux from J-774 macrophages. The following applies: lipoprotein-free medium, 10, 25 or 50 μM, 4 hour, dose-dependent. It is filed as cell-based, Murine. The procedure:
Murine J-774 cells (1×10^6/mL) were plated in 24-well plates for 24 hours, then washed and incubated for 1 hour in serum-free DMEM that contained ^3H-cholesterol (2 μCi/mL) and BSA (0.2%). […] After a 4-hour incubation at 37° C. to permit efflux of ^3H-cholesterol from the cells into the medium, 500 μL of the medium was collected. The cells were washed with PBS, 1 mL of 0.1 N NaOH was added to the cells and 500 μL was collected the next day. Medium and cellular ^3H-cholesterol were determined by liquid scintillation counting (LSC). […] Corrole-mediated cholesterol efflux was calculated after subtraction of the non-specific efflux obtained in cells incubated in the absence of corroles.
A still further indication for a favorable alteration of cellular cholesterol transport by metallocorroles was obtained by studying cholesterol efflux from J-774 macrophages in a lipoprotein-free medium. The iron complex (but not the manganese and gallium complexes) of corrole 1 increased the cholesterol efflux by up to 20% in a dose-dependent fashion.

Another assay relates to HDL. The assay is described as follows: Oxidation of HDL by copper sulfate. It is filed as biochemical, human. The following applies: for Effect on conjugated dienes formation in HDL: 2.5 μM corrole, 5 μM CuSO4. How it is done: Oxidation was initiated by addition of a freshly prepared CuSO4 solution (5 μM) and incubation at 37° C. under air in a shaking water bath was continued for 2 h (LDL) or 5 h (HDL). Lipoprotein oxidation was determined by measuring the amount of TBARS (Aviram et al. 2001).
Conjugated dienes formation was continuously monitored for 165 min while TBARS and lipid peroxides (Aviram et al. 2001) were measured after 15, 30, 45, 60, 75, 90, 120 and 165 minutes.
The results for the copper-induced oxidation of HDL were very similar to the results obtained for LDL. […] It should be mentioned that the damage measured for HDL is lower than that measured for LDL, due to the lower lipid content of HDL.

The nature of assay [2]: Oxidation of DMSO to formaldehyde by peroxynitrite. The following applies: pH 7.4, T=25°C, yield relative to [PN]0; PN alone 11.5%. The procedure: The final pH of the solutions was 7.4 and the temperature was maintained at 24° C. After 5 min of stirring, a 0.3 ml NaOH solution (7.8 M) was added to each tube for analyzing the amount of formed formaldehyde. This was immediately followed by supplying the tubes with 0.3 mL of 34.2 mM Purpald® (a color forming reagent for the determination of aldehydes; Aldrich Chemical Co.) in 480 mM HCl; and a second incubation with continuous shaking was performed for 10 min at 24° C. The thus obtained reaction product between formaldehyde and Purpald® was oxidized to a colored compound by the addition of 0.3 mL 470 mM KIO4 in 470 mM NaOH. The absorbance at 550 nm was measured with a spectrophotometer and the amount of formaldehyde was determined by using a standard curve obtained from formaldehyde solutions of known concentrations (a linear curve was obtained by drawing final O.D. at 550 nm versus initial formaldehyde concentrations).
These particular molecules were specifically chosen because they represent targets of hydroxyl radical, nitrogen dioxide, and of oxygen transfer reagents. In addition, their reaction products are easily identified and quantified by established methods.

The test system of assay [3] is mouse peritoneal macrophages (MPM). The assay is described as follows: Cholesterol efflux from MPM of treated E^0 mice. The conditions noted are these: drinking water 0.04 mM (8 mg/Kg/day), 14 weeks.
Experimental: Mouse peritoneal macrophages were incubated with [^3H]-labeled cholesterol for 1 h at 37° C. followed by cell wash in ice-cold PBS (3×) and further incubation in the absence or presence of 100 μg of human HDL protein/ml for 3 h at 37° C. Cellular and medium [^3H]-labels were quantitated and HDL-mediated cholesterol efflux was calculated as the ratio of [^3H]-label in the medium/[^3H]-label in the medium+[^3H]-label in cells.
Assay [4] shares this test system. The assay is described as follows: Cholesterol synthesis by MPM of treated E^0 mice. The conditions noted are these: drinking water 0.04 mM (8 mg/Kg/day), 14 weeks.
Experimental: Cellular cholesterol biosynthesis was assayed after incubation of macrophages (3×10^6 well^−1) overnight with DMEM containing 2% BSA followed by additional 3 h of incubation at 37° C. with [^3H]-acetate (3.3 μCi/ml). Cellular lipids were extracted with hexane:isopropanol (3:2, v:v), and the upper phase was dried under nitrogen. The lipids were then separated by TLC using an eluent of hexane:ether:acetic acid (130:30:1.5, v:v:v). Unesterified cholesterol spots were visualized by iodine vapor (by using standard for identification) and counted with β-counter.
The test system of assay [5] is J-774 macrophages. The assay is described as follows: Cholesterol efflux from J-774 macrophages by serum of treated E^0 mice. The following applies: drinking water 0.04 mM (8 mg/Kg/day), 14 weeks.
Experimental: J-774 macrophages were incubated with [^3H]-labeled cholesterol for 1.5 h at 37° C. followed by cell wash in ice-cold PBS (3×) and further incubation in the presence of 15 μL mice serum for 3 h at 37° C. Cellular and medium [^3H]-labels were quantitated and HDL-mediated cholesterol efflux was calculated as the ratio of [^3H]-label in the medium/[^3H]-label in the medium+[^3H]-label in cells.

Consider `O=S(=O)(O)c1cc2[n]3c1C(c1c(F)c(F)c(F)c(F)c1F)=C1C=CC4=[N+]1[Mn-]31[n]3c(cc(S(=O)(=O)O)c3-2)C(c2c(F)c(F)c(F)c(F)c2F)=c2ccc([n]21)=C4c1c(F)c(F)c(F)c(F)c1F` (stereo not drawn) [1-Mn, 5,10,15-tris(pentafluorophenyl)-2,17-bis(sulfonic acid)-corrolato manganese(III)], for which, in the assay on J-774 macrophages [1], the “Increase of cholesterol efflux from J-774 macrophages” value was “not”. Moreover, in the assay on HDL, the “Effect on conjugated dienes formation in HDL” value is reported as “shortened the delay time”. Moreover, the “Increase of TBARS formation in HDL” value in the assay with HDL (all concentrations measured, 5 hr after CuSO4) is “about 2 folds”. The “Yield of formaldehyde from DMSO” value in assay [2] turned out to be 0%.

`O=S(=O)(O)c1cc2[n]3c1C(c1c(F)c(F)c(F)c(F)c1F)=C1C=CC4=[N+]1[Fe-]31[n]3c(cc(S(=O)(=O)O)c3-2)C(c2c(F)c(F)c(F)c(F)c2F)=c2ccc([n]21)=C4c1c(F)c(F)c(F)c(F)c1F` (stereo not drawn) [1-Fe, 5,10,15-tris(pentafluorophenyl)-2,17-bis(sulfonic acid)-corrolato iron(III)]: the figures for the “Increase of cholesterol efflux from J-774 macrophages” value in the assay with J-774 macrophages [1] and in the assay on J-774 macrophages [1] (listed as iron complex) were “increases” and “up to 20%”, respectively. The “Decrease in cholesterol efflux from the E^0 MPM” value in assay [3] is reported as 20%. Further, the “Reduction of cholesterol synthesis by MPMs” value in assay [4] is on record as 76%. The “Effect on conjugated dienes formation in HDL” value in the assay on HDL is on record as “completely eliminated their formation”. Also, in the assay on HDL (corrole 2.5 μM and higher, 5 hr after CuSO4), the “Effect on TBARS formation in HDL” value is “protective effect”. In the assay with J-774 macrophages [5], the “Increase in serum-mediated cholesterol efflux from J-774 macrophages” value worked out at 7%. Besides, the “Yield of formaldehyde from DMSO” value in assay [2] is reported as 0%.

These data come from patent US8791099B2, “Transition metal complexes of corroles for preventing cardiovascular diseases or disorders” (Technion Research and Development Foundation Ltd., priority 2007, dated 2014).
